Test results as given in patent publication EP2271341B1, “SPECIFIC INHIBITORS FOR VASCULAR ENDOTHELIAL GROWTH FACTOR RECEPTORS” (Nova Southeastern University, priority 2008, dated 2009).

Tests used:
[1] = tested on: Human umbilical vein endothelial cell; test: In Vitro Angiogenesis Assay (morphogenesis / tube formation on Matrigel, ECMatrix kit); assay type: cell-based; parameters: key to Results: Individual cells, well separated (+++++); Cells begin to migrate and align themselves (++++); Cells begin to line but not sprouting (+++); Visible Sprouting (++); Closed polygons begins to form (+); conditions: for Results: score of the extent of cellular networks, HUVECs 10^4 cells/well, inhibitors 1mM and 10 mM, 8 hours incubation at 37 °C, higher score = greater inhibition of angiogenesis
Protocol: Human umbilical vein endothelial cell was purchased from Cambrex Co. (East Rutherford, New Jersey) and maintained in EGM (Endothelial Growth Medium) supplemented with 2% FBS, 0.1% EGF, 0.1% Hydrocortisone, 0.1% GA-1000 and 0.4% BBE.
The morphogenesis assay on Matrigel was performed according to the manufacturer's instructions (Chemicon International). The ECMatrix™ kit consists of laminin, collagen type IV, heparan sulfate, proteoglycans, entactin and nidogen. It also contains various growth factors (TGF-β, FGF) and proteolytic enzymes (plasminogen, tPA, MMPs) that are normally produced in EHS tumors. The incubation condition was optimized for maximal tube-formation as follows: 50µl of EC Matrix™ was suitably diluted in the ratio 9:1 with 10X diluent buffer and used for coating the 96-well plate. The coated plates were incubated at 37° C for 1 hr. to allow the Matrix solution to solidify. In the meantime the HUVECs that were cultured for 24 hours in EGM with 2% FBS was trypsinised and resuspended in the growth media and the cells were counted. After 1 hr. pre-incubation of the plate with Matrix solution, the HUVECs were plated at 10^4 cells/well in the absence or in the presence of different VEGFR inhibitors (1mM and 10 mM). After 8 hours incubation at 37 °C, the cell three-dimensional organization (cellular network structures) was examined under an inverted photomicroscope. Each treatment was performed in triplicate.
Activated endothelial cells form cellular networks (mesh like structures) resembling capillary tubes sprouting into the stromal space. The formation of these cellular networks is a dynamic process, which started migration and alignment of cells followed by the development of capillary tubes like structures, sprouting of new branches and finally the formation of the cellular networks. Although this in vitro angiogenesis kit is designed only as a qualitative assay, we have made an attempt to quantitate the degree of angiogenesis using a scoring method. The scoring was based on the extent of the cellular networks that were observed as follows: • Individual cells, well separated (+++++) • Cells begin to migrate and align themselves (++++) • Cells begin to line but not sprouting (+++) • Visible Sprouting (++) • Closed polygons begins to form (+).
According to our qualitative assessment, the higher the scoring the greater the efficiency of the compound for inhibiting endothelial cell mediated angiogenesis.

VEGFR = test: Assay of VEGF Receptor Tyrosine Kinase Activity (VEGFR immunoprecipitated from cell lysate, non-radioactive PTK ELISA); assay type: biochemical; conditions: VEGFR immunoprecipitated from cell lysate with VEGFR specific antibody, read-out: IC50 for inhibiting VEGFR kinase
Text: Protein Tyrosine Kinases (PTKs) perform a critical role in signal transduction pathways that control cell proliferation, differentiation, metabolism, and apoptosis. Phosphorylation of proteins by PTKs is essential for the regulation of these biological mechanisms and defects in these pathways may result in a number of human diseases, including cancer. The important aspect of these enzymes in cellular regulation is accentuated by the fact that for a large number of kinases a corresponding viral oncogene product has been identified. […] CHEMICON's non-radioactive Tyrosine Kinase Activity Assay provides a simple, convenient and specific method for quantification and comparative determination of a wide range of PTKs. […]
The non-radioactive Tyrosine Kinase Activity Assay Kit consists of a synthetic Biotinylated Peptide Substrate, a Biotinylated Phosphopeptide, purified Phosphotyrosine specific monoclonal antibody conjugated to horseradish peroxidase (HRP) and other components required to perform 96 ELISA-based assays. […] The quantity of phosphate incorporated into the tyrosine kinase substrate is determined utilizing the phosphopeptide standard curve. […] The assay reaction would be terminated by the addition of 100 µl of stop solution and finally, the absorbance was measured on a standard microplate reader at 450nm. […]

GI-101A = test: Cytotoxicity towards breast carcinoma cell line GI-101A; assay type: cell-based; conditions: GI-101A breast carcinoma cell line
MCF-7 = test: Cytotoxicity towards breast carcinoma cell line MCF-7; assay type: cell-based; conditions: MCF-7 breast carcinoma cell line

EC50 ([1]; Homo sapiens, Endothelial cell, estimated, read-out: EC50 value for anti-antigenic effect) [nM]	IC50 (VEGFR) [nM]	Compound	Results [1]	cytotoxicity (GI-101A)	cytotoxicity (MCF-7)
250	400	COc1ccc(NCC(O)Cn2cnc3c2c(=O)n(C)c(=O)n3C)cc1 (centres unmarked) [Example 1]	+++++	produced cytotoxicity	produced cytotoxicity
		CCC(CNCCO)Nc1nc2c(c(=O)n(C)c(=O)n2C)n1Cc1ccccc1 (centres unmarked) [Example 7]	++		
		CCCCCCCCCCCCCCCCCCOc1ccc(C(=O)CC(=O)Nc2ccc(Sc3cccc(C(=O)O)c3)c(C(=O)O)c2)cc1 [Example 5]	+++		
		CCCCCCCCCCCCCCCCOc1ccc(C(NNS(=O)(=O)c2cccc(C(=O)O)c2)N2CCCCC2)cc1 (centres unmarked) [Example 2]	++++		
